Measurements taken from the supplement of paper PMC4932681.

Tests used:
[1] = system: BT-474 Tam1; assay: drug sensitivity score (DSS) (DSS (dimensionless)); higher = more sensitive; extreme values may be limits of the assay; conditions: 4-OH-tamoxifen in medium 1 µM; 72 h
Procedure, shortened: (§1)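 Drug sensitivity score, relative IC50 as the curve midpoint, and top-dose inhibition were derived from logistic dose–response fits in the Breeze pipeline. These fits used CellTiter-Glo viability, read on a PHERAstar and normalised to vehicle-only and positive controls. Breast cancer cell lines and resistant derivatives had been incubated for 72 h at 37 °C in 384-well plates holding library drugs at five concentrations spanning a 10 000-fold range. Resistant lines were grown in medium with 1 μM of the selecting drug.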

[2] = system: BT-474 Tam2; assay: as above; conditions: 4-OH-tamoxifen in medium 1 µM; 72 h
Procedure, shortened: as §1

[3] = system: BT-474; assay: as above; conditions: 72 h
Procedure, shortened: as §1

[4] = system: MCF-7 Tam1; assay: as above; conditions: 4-OH-tamoxifen in medium 1 µM; 72 h
Procedure, shortened: as §1

[5] = system: MCF-7; assay: as above; conditions: 72 h
Procedure, shortened: as §1

[6] = system: T-47D Tam1; assay: as above; conditions: 4-OH-tamoxifen in medium 1 µM; 72 h
Procedure, shortened: as §1

[7] = system: T-47D Tam2; assay: as above; conditions: 4-OH-tamoxifen in medium 1 µM; 72 h
Procedure, shortened: as §1

[8] = system: T-47D; assay: as above; conditions: 72 h
Procedure, shortened: as §1

[9] = system: ZR-75-1 Tam1; assay: as above; conditions: 4-OH-tamoxifen in medium 1 µM; 72 h
Procedure, shortened: as §1

[10] = system: ZR-75-1 Tam2; assay: as above; conditions: 4-OH-tamoxifen in medium 1 µM; 72 h
Procedure, shortened: as §1

[11] = system: ZR-75-1; assay: as above; conditions: 72 h
Procedure, shortened: as §1

[12] = system: BT-474 Tam2; assay: relative IC50 (midpoint of fitted logistic curve, plateau may be below 50% inhibition; CellTiter-Glo viability); higher = less potent; conditions: 4-OH-tamoxifen in medium 1 µM; 72 h
Procedure, shortened: as §1

[13] = system: BT-474; assay: as above; conditions: 72 h
Procedure, shortened: as §1

[14] = system: MCF-7 Tam1; assay: as above; conditions: 4-OH-tamoxifen in medium 1 µM; 72 h
Procedure, shortened: as §1

[15] = system: MCF-7; assay: as above; conditions: 72 h
Procedure, shortened: as §1

[16] = system: T-47D Tam1; assay: as above; conditions: 4-OH-tamoxifen in medium 1 µM; 72 h
Procedure, shortened: as §1

[17] = system: T-47D Tam2; assay: as above; conditions: 4-OH-tamoxifen in medium 1 µM; 72 h
Procedure, shortened: as §1

[18] = system: T-47D; assay: as above; conditions: 72 h
Procedure, shortened: as §1

[19] = system: ZR-75-1; assay: as above; conditions: 72 h
Procedure, shortened: as §1

[20] = system: BT-474 Tam1; assay: as above; conditions: 4-OH-tamoxifen in medium 1 µM; 72 h
Procedure, shortened: as §1

[21] = system: ZR-75-1 Tam1; assay: as above; conditions: 4-OH-tamoxifen in medium 1 µM; 72 h
Procedure, shortened: as §1

[22] = system: ZR-75-1 Tam2; assay: as above; conditions: 4-OH-tamoxifen in medium 1 µM; 72 h
Procedure, shortened: as §1

Compound | drug sensitivity score [1] | drug sensitivity score [2] | drug sensitivity score ([3]; 4-OH-tamoxifen in medium 0 µM) | drug sensitivity score ([3]; 4-OH-tamoxifen in medium 1 µM) | drug sensitivity score [4] | drug sensitivity score ([5]; 4-OH-tamoxifen in medium 0 µM) | drug sensitivity score ([5]; 4-OH-tamoxifen in medium 1 µM) | drug sensitivity score [6] | drug sensitivity score [7] | drug sensitivity score ([8]; 4-OH-tamoxifen in medium 0 µM) | drug sensitivity score ([8]; 4-OH-tamoxifen in medium 1 µM) | drug sensitivity score [9] | drug sensitivity score [10] | drug sensitivity score ([11]; 4-OH-tamoxifen in medium 0 µM) | drug sensitivity score ([11]; 4-OH-tamoxifen in medium 1 µM) | relative IC50 [12] [µM] | relative IC50 ([13]; 4-OH-tamoxifen in medium 0 µM) [µM] | relative IC50 [14] [µM] | relative IC50 ([15]; 4-OH-tamoxifen in medium 0 µM) [µM] | relative IC50 [16] [µM] | relative IC50 [17] [µM] | relative IC50 ([18]; 4-OH-tamoxifen in medium 0 µM) [µM] | relative IC50 ([19]; 4-OH-tamoxifen in medium 0 µM) [µM] | relative IC50 [20] [µM] | relative IC50 ([13]; 4-OH-tamoxifen in medium 1 µM) [µM] | relative IC50 ([15]; 4-OH-tamoxifen in medium 1 µM) [µM] | relative IC50 ([18]; 4-OH-tamoxifen in medium 1 µM) [µM] | relative IC50 [21] [µM] | relative IC50 ([19]; 4-OH-tamoxifen in medium 1 µM) [µM] | relative IC50 [22] [µM]
COc1cc([C@@H]2c3cc4c(cc3[C@@H](O[C@@H]3O[C@@H]5CO[C@@H](C)O[C@H]5[C@H](O)[C@H]3O)[C@H]3COC(=O)[C@H]23)OCO4)cc(OC)c1O [Etoposide] | 0.0698 | 0 | 0 | 1.71 | 0 | 0 | 0.239 | 5.76 | 0 | 6.74 | 0.625 | 1.42 | 1.13 | 3.42 | 0.761 | > 10 | > 10 | > 10 | > 10 | 0.667 | > 10 | 0.605 | 0.612 |  |  |  |  |  |  | 
COCC1(CO)C(=O)C2CCN1CC2 (stereo not given) [Prima-1 Met] | 0 | 0 | 0 | 0 | 0 | 0.0674 | 0 | 0 | 0 | 0 | 0 | 0 | 0.24 | 0 | 0 | > 10 | > 10 | > 10 |  | > 10 | > 10 | > 10 | > 10 | > 10 | > 10 | > 10 | > 10 | > 10 | > 10 | 
CCC1=C[C@@H]2CN(C1)Cc1c([nH]c3ccccc13)[C@@](C(=O)OC)(c1cc3c(cc1OC)N(C)[C@H]1[C@@](O)(C(=O)OC)[C@H](OC(C)=O)[C@]4(CC)C=CCN5CC[C@]31[C@@H]54)C2 [Vinorelbine (tartrate)] | 17.2 | 14.3 | 13.8 | 23 | 0 | 9.78 | 12.3 | 7.24 | 8.26 | 6.22 | 2.28 | 1.16 | 2.36 | 9.06 | 3.16 | 0.442 | 0.0429 | > 10 | 0.202 | 0.687 | 0.583 |  | 0.0433 | 0.249 | 0.0843 | 0.141 | 1.73 |  | 1.54 | 
COc1ccc(S(=O)(=O)Nc2cccnc2Nc2ccc(O)cc2)cc1 [ABT-751] | 6.57 | 6.39 | 6.81 | 9.13 | 0 | 6.87 | 4.14 | 6.4 | 4.48 | 0 | 0 | 0 | 1.41 | 5.44 | 0.184 | 0.992 | 0.347 | > 10 | 0.615 | 1.17 | 0.92 | > 10 | 0.412 | 1.35 | 0.891 | 1.49 | > 10 | > 10 |  | 
Cc1cc(Nc2cc(CN3CCOCC3)c3nc(C)c(Cc4ccc(Cl)cc4F)n3n2)n[nH]1 | 16.2 | 12.8 | 0 | 7.73 | 2.42 | 6.61 | 4.32 | 3.55 | 3.58 | 1.41 | 1.86 | 0 | 0.848 | 0 | 0 | 0.749 | > 10 | 3.26 | 1.41 | 1.56 | 1.98 |  | > 10 | 0.329 | 1.04 | 2.7 |  | > 10 | > 10 | 
N#CCNC(=O)c1ccc(-c2ccnc(Nc3ccc(N4CCOCC4)cc3)n2)cc1 [Momelotinib (CYT-387)] | 1.15 | 0.414 | 0 | 0 | 3.23 | 1.83 | 4.64 | 5.08 | 1.42 | 0.52 | 0 | 0 | 0 | 0 | 0.68 |  | > 10 | 2.03 | 4.2 | 0.346 | 4.18 |  | > 10 | 5.2 | > 10 | 2.52 | > 10 | > 10 |  | 
COc1ccccc1S(=O)(=O)Nc1ccc2c(c1)CN(C)C(=O)N2 [PFI-1] | 0.704 | 2.35 | 2.69 | 0.561 | 0 | 2.8 | 2.92 | 4.01 | 1.76 | 0.887 | 0.0577 | 1.48 | 1.77 | 0.0459 | 1.01 | 1.62 | 1.1 | > 10 | 2.53 | 0.492 | 2.71 |  |  |  |  | 1.89 |  |  |  | 
CN(C)CCOc1ccc(/C(=C(/CCCl)c2ccccc2)c2ccccc2)cc1 [Toremifene (citrate)] | 4.96 | 5.77 | 0.652 | 4.16 | 1.2 | 0.353 | 3.26 | 3.53 | 3.09 | 0 | 0 | 0.357 | 0.814 | 0 | 0.599 | 3.02 |  | 4.15 |  | 1.86 | 3.46 | > 10 | > 10 | 3.41 | 3.52 | 3.69 | > 10 |  |  | 
Cc1cc(Nc2nc(N[C@@H](C)c3ncc(F)cn3)ncc2Cl)[nH]n1 [AZD1480] | 0 | 0 | 0 | 0 | 0 | 0.0046 | 0 | 2.6 | 0 | 0 | 0 | 0 | 0 | 0 | 0 | > 1 | > 1 | > 1 |  |  | > 1 | > 1 | > 1 | > 1 | > 1 | > 1 | > 1 | > 1 | > 1 | > 1
CCCCCOC(=O)Nc1nc(=O)n([C@@H]2O[C@H](C)[C@@H](O)[C@H]2O)cc1F [Capecitabine] | 0 | 0 | 0 | 0 | 0 | 0 | 0 | 0 | 0 | 0 | 0 | 0.129 | 0.0192 | 1.86 | 0 | > 10 | > 10 | > 10 | > 10 | > 10 | > 10 | > 10 |  | > 10 | > 10 | > 10 | > 10 |  | > 10 | 
C=CCN(/C=C1/C(=O)O[C@H](COC)[C@@]2(C)C1=C(O)C(=O)C1=C2[C@H](OC(C)=O)C[C@]2(C)C(=O)CC[C@@H]12)CC=C [Sonolisib (PX-866)] | 0 | 0 | 0 | 0 | 0 | 0 | 0 | 0 | 0 | 0 | 0 | 0.103 | 0.0742 | 0 | 0.361 | > 10 | > 10 | > 10 | > 10 | > 10 | > 10 | > 10 | > 10 | > 10 | > 10 |  | > 10 |  |  | 
C[C@@H]1CCN(C(=O)CC#N)C[C@@H]1N(C)c1ncnc2[nH]ccc12 [Tofacitinib (Tasocitinib)] | 0 | 0 | 0 | 0 | 0 | 0 | 0.208 | 0 | 0 | 0 | 0 | 0 | 0.0132 | 0 | 0 | > 5 | > 5 | > 5 | > 5 | > 5 | > 5 | > 5 | > 5 | > 5 | > 5 |  | > 5 | > 5 | > 5 | 
Nc1ccn([C@@H]2O[C@H](CO)[C@@H](O)[C@@H]2O)c(=O)n1 [Cytarabine] | 0 | 0 | 0 | 0 | 0 | 4.84 | 1.56 | 4.13 | 0 | 2.75 | 0 | 1.96 | 2.46 | 3.25 | 0.265 | > 10 | > 10 | > 10 | 0.435 | 0.58 | > 10 | 1.94 | 1.5 | > 10 | > 10 |  | > 10 |  |  | 
Nc1nc(F)nc2c1ncn2[C@@H]1O[C@H](CO)[C@@H](O)[C@@H]1O [Fludarabine] | 0 | 0 | 0 | 0 | 0 | 0 | 1.23 | 2.13 | 0 | 0 | 0 | 0 | 0 | 0 | 0 | > 10 | > 10 | > 10 | > 10 |  | > 10 | > 10 | > 10 | > 10 | > 10 |  | > 10 | > 10 | > 10 | > 10
CC/C(=C(\c1ccc(O)cc1)c1ccc(OCCN(C)C)cc1)c1ccccc1 [4-hydroxytamoxifen] | 9.04 | 4.79 | 0.905 | 5.15 | 1.87 | 3.05 | 4.41 | 2.07 | 4.19 | 0.306 | 2.56 | 0.263 | 1.3 | 0 | 1.5 | 3.57 |  | 3.94 | 2.87 | 2.88 | 3.36 |  | > 10 | 1.59 | 3.35 | 3.34 | 3.9 |  | 3.2 | 
